Measured values as given in PMC4403932 (Journal of Medicinal Chemistry, 2015).
Like-named read-outs stand apart in the source and are kept apart here.

Key:
Format in all cases: binding
[1] = molecular target: T1, BRD3(1) (Homo sapiens, UniProt Q15059); assay: Protein stability (thermal) shift assay, BRD3(1); settings: compound 10 μM, protein 2 μM; average of triplicate
T1 construct: Fragments were tested in a thermal shift assay against bromodomains of the BET subfamily; made in house

[2] = molecular target: T2, BRD3(2) (Homo sapiens, UniProt Q15059); assay: Protein stability (thermal) shift assay, BRD3(2); settings: compound 10 μM, protein 2 μM; average of triplicate
T2 construct: made in house

[3] = molecular target: T3, CREBBP (Homo sapiens, UniProt Q92793); assay: Protein stability (thermal) shift assay, CREBBP; settings: compound 10 μM, protein 2 μM; average of triplicate; read-out: ΔTm Shift, CREBBP
T3 construct: small thermal shits (1.0–1.3 °C) for the bromodomain of CREBBP; made in house

[4] = molecular target: T4, BRDT(2) (Homo sapiens, UniProt Q58F21); assay: Protein stability (thermal) shift assay, BRDT(2)
T4 construct: made in house

[5] = molecular target: T5, BRD4(2) (Homo sapiens, UniProt O60885); assay: Protein stability (thermal) shift assay, BRD4(2); settings: compound 10 μM, protein 2 μM; average of triplicate
T5 construct: made in house

[6] = molecular target: T6, BRDT(1) (Homo sapiens, UniProt Q58F21); assay: Protein stability (thermal) shift assay, BRDT(1); settings: compound 10 μM, protein 2 μM; average of triplicate
T6 construct: made in house

[7] = molecular target: T7, BRD4(1) (Homo sapiens, UniProt O60885); assay: Protein stability (thermal) shift assay, BRD4(1); settings: compound 10 μM, protein 2 μM; average of triplicate; read-out: ΔTm Shift, BRD4(1)
T7 construct: made in house

[8] = molecular target: T8, PB1(5) (Homo sapiens, UniProt Q86U86); assay: Protein stability (thermal) shift assay, PB1(5); settings: compound 10 μM, protein 2 μM; average of triplicate
T8 construct: made in house

[9] = molecular target: T9, PCAF (Homo sapiens, UniProt Q92831); assay: Protein stability (thermal) shift assay, PCAF; settings: compound 10 μM, protein 2 μM; average of triplicate
T9 construct: representative BRDs from other structural subfamilies (family I, PCAF); made in house
T9 sequence (Q92831 723-827 limits assumed): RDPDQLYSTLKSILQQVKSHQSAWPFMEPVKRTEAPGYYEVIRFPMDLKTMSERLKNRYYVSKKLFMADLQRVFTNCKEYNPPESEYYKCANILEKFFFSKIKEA

[10] = molecular target: T10, BRD2(2) (Homo sapiens, UniProt P25440); assay: Protein stability (thermal) shift assay, BRD2(2); settings: compound 10 μM, protein 2 μM; average of triplicate
T10 construct: made in house

[11] = tested on: human bromodomains (panel); assay: Protein stability (thermal) shift assay, whole panel of human bromodomains; settings: 10 μM compound
Protocol: Thermal melting experiments were carried out using an Mx3005p real time PCR machine (Stratagene). Proteins were buffered in 10 mM HEPES, pH 7.5, 500 mM NaCl and assayed in a 96-well plate at a final concentration of 2 μM in 20 μL volume. Compounds were added at a final concentration of 10 or 100 μM. SYPRO Orange (Molecular Probes) was added as a fluorescence probe at a dilution of 1 in 1000. Excitation and emission filters for the SYPRO-Orange dye were set to 465 and 590 nm, respectively. The temperature was raised with a step of 3 °C per minute from 25 to 96 °C, and fluorescence readings were taken at each interval. The temperature dependence of the fluorescence during the protein denaturation process was approximated by the equation [drawing 1] where ΔuG is the difference in unfolding free energy between the folded and unfolded state, R is the gas constant, and yF and yU are the fluorescence intensity of the probe in the presence of completely folded and unfolded protein, respectively.[65] The baselines of the denatured and native states were approximated by a linear fit. The observed temperature shifts, ΔTm^obs, were recorded as the difference between the transition midpoints of sample and reference wells containing protein without ligand in the same plate and determined by nonlinear least-squares fit. Temperature shifts (ΔTm^obs) for three independent measurements per proteins/compound are summarized in Supporting Information Table S1.

[12] = molecular target: T11, BRD9 (Homo sapiens, UniProt Q9H8M2); assay: Protein stability (thermal) shift assay, BRD9; settings: compound 10 μM, protein 2 μM; average of triplicate; read-out: ΔTm Shift, BRD9
T11 construct: made in house
T11 sequence (Q9H8M2 136-240 limits assumed): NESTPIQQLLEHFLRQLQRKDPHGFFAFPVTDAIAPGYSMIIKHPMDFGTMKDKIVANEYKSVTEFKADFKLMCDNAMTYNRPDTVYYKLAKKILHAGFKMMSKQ

[13] = molecular target: T12, BAZ2B (Homo sapiens, UniProt Q9UIF8); assay: Protein stability (thermal) shift assay, BAZ2B; settings: compound 10 μM, protein 2 μM; average of triplicate; read-out: ΔTm Shift, BAZ2BA
T12 construct: representative BRDs from other structural subfamilies (family I, PCAF); family III, CREBBP; family IV, BRD9; family V, BAZ2B; made in house
T12 sequence (Q9UIF8 2060-2164 limits assumed): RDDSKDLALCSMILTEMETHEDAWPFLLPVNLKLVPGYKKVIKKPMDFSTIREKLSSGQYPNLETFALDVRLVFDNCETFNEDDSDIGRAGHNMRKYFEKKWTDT

[14] = molecular target: T13, BRD2(1) (Homo sapiens, UniProt P25440); assay: Protein stability (thermal) shift assay, BRD2(1); settings: compound 10 μM, protein 2 μM; average of triplicate
T13 construct: Fragments were tested in a thermal shift assay against bromodomains of the BET subfamily; made in house

[15] = molecular target: T11, BRD9; assay: Isothermal titration calorimetry, BRD9; settings: ITC, 50 mM HEPES pH 7.5, 150 mM NaCl, 15 °C, reverse titration, triplicate
Protocol: Experiments were carried out on an ITC200 titration microcalorimeter from MicroCal, LLC (GE Healthcare) equipped with a Washing module, with a cell volume of 0.2003 mL, and a 40 μL microsyringe. Experiments were carried out at 15 °C while stirring at 1000 rpm, in ITC buffer (50 mM HEPES, pH 7.5 (at 25 °C), 150 mM NaCl). The microsyringe was loaded with a solution of the protein sample (300−740 μM protein for BRD9 and BRD4(1), respectively, in ITC buffer) and was carefully inserted into the calorimetric cell which was filled with an amount of the ligand (0.2 mL, 20–25 μM in ITC buffer). The system was first allowed to equilibrate until the cell temperature reached 15 °C, and an additional delay of 60 s was applied. All titrations were conducted using an initial control injection of 0.3 μL followed by 38 identical injections of 1 μL with a duration of 2 s (per injection) and a spacing of 120 s between injections. The titration experiments were designed in such a fashion as to ensure complete saturation of the proteins before the final injection. The heat of dilution for the proteins was independent of their concentration and corresponded to the heat observed from the last injection, following saturation of ligand binding, thus facilitating the estimation of the baseline of each titration from the last injection. The collected data were corrected for protein heats of dilution (measured on separate experiments by titrating the proteins into ITC buffer) and deconvoluted using the MicroCal Origin software supplied with the instrument to yield enthalpies of binding (ΔH) and binding constants (KB) in the same fashion as that previously described in detail by Wiseman and co-workers.[66] Thermodynamic parameters were calculated using the basic equation of thermodynamics (ΔG = ΔH – TΔS = −RT ln KB, where ΔG, ΔH, and ΔS are the changes in free energy, enthalpy, and entropy of binding, respectively). In all cases a single binding site model was employed, supplied with the MicroCal Origin software package.

[16] = compound 10 μM, protein 2 μM, average of triplicate, read-out: ΔTm Shift, BRDT(2)

T10 sequence (P25440 344-453 limits assumed): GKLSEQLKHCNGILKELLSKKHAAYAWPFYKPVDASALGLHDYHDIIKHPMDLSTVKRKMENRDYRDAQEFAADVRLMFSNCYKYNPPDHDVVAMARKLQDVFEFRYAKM
T3 sequence (Q92793 1085-1192 limits assumed): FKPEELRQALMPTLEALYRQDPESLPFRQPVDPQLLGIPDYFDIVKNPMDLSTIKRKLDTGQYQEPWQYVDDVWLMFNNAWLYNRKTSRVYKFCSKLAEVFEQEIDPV
T2 sequence (Q15059 306-415 limits assumed): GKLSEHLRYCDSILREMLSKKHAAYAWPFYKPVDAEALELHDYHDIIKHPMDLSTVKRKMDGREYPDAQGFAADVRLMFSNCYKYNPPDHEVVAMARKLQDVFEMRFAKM
T13 sequence (P25440 74-180 limits assumed): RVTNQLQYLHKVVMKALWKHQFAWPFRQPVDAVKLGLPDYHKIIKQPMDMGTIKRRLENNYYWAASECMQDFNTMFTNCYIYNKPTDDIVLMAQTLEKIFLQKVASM
T8 sequence (Q86U86 653-763 limits assumed): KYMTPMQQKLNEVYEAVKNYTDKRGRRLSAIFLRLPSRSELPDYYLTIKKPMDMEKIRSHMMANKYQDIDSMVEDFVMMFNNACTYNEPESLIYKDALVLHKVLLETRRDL
T1 sequence (Q15059 34-140 limits assumed): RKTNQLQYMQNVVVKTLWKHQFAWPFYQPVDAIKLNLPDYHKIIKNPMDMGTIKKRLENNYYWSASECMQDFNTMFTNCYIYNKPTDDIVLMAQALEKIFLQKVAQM

SMILES | ΔTm at 10 µM [1] [°C] | ΔTm at 10 µM [2] [°C] | ΔTm at 10 µM [3] [°C] | ΔTm at 10 µM [4, 16] [°C] | ΔTm at 10 µM [5] [°C] | ΔTm at 10 µM [6] [°C] | ΔTm at 10 µM [7] [°C] | ΔTm at 10 µM [8] [°C] | ΔTm at 10 µM [9] [°C] | ΔTm at 10 µM [10] [°C] | binding to the bromodomain panel in the ΔTm assay (in words) [11] | ΔTm at 10 µM [12] [°C] | ΔTm at 10 µM [13] [°C] | ΔTm at 10 µM [14] [°C] | KD [15] | ΔTm at 10 µM ([4]; thermal shift, 10 μM compound, 2 μM protein, read-out: ΔTm) [°C]
COc1ccc(-c2nc(N)nc3c2ncn3C)cc1 [Compound 3c, 2-Amino-6-(4-methoxyphenyl)-9-methylpurine] | -1 | -0.7 | 1.1 | -2.5 | -3.8 | -0.7 | -0.7 | -0.0233 | -1.1 | -0.5 | very weak or no binding | -0.32 | -1.3 | -1 |  | 
Cn1cnc2c(-c3ccc(Oc4ccccc4)cc3)nc(N)nc21 [Compound 3e, 2-Amino-6-(4-phenoxyphenyl)-9-methylpurine] | 0.743 | 0.8 | 1.3 | 1.2 | 0.8 | 0.6 | 1 | 0.8 | 1 | 0.463 | very weak or no binding | 0.257 | 0.6 | 0.32 |  | 
CCCCOc1cc(Br)cc(-c2nc(N)nc3c2ncn3C)c1 [Compound 5b, 2-Amino-6-(3-bromo-5-butoxyphenyl)-9-methylpurine] | 0.227 | 0.5 | 1.3 | 1 | 0.373 | 0.45 | 0.633 | 0.5 | 0.9 | 0.163 | very weak or no binding | -0.56 | 0.217 | -0.153 | no binding/weak | 
COc1ccc(Br)cc1-c1nc(N)nc2c1ncn2CC(C)=O [Compound 8c, 2-Amino-6-(5-bromo-2-methoxyphenyl)-9-(2-oxopropyl)-purine] | 0.275 | 0.535 | -0.07 | 0.571 | -0.431 | 0.151 | 0.24 | 0.243 | -0.6 | 0.0227 | could not be tolerated | -0.109 | -0.06 | 0.0207 |  | 
COc1ccc(F)cc1-c1nc(O)nc2[nH]cnc12 [Compound 8d, 6-(5-Fluoro-2-methoxyphenyl)-2-hydroxy-9H-purine] | 0.9 | 0.187 | 0.34 | 0.368 | 0.7 | 0.9 | 0.9 | 0.564 | 0.535 | 0.5 | lost affinity across the panel | -0.8 | 0.277 | 1 |  | 
COc1ccc(Br)cc1-c1nc(O)nc2[nH]cnc12 [Compound 8f, 6-(5-Bromo-2-methoxyphenyl)-2-hydroxy-9H-purine] | 0.55 | 0.853 | 0.6 | 1 | 0.7 | 0.653 | 1.2 | 0.8 | 0.378 | 0.5 | lost affinity across the panel | -0.66 | 0.563 | 1 |  | 
COc1ccc(F)cc1-c1ncnc2[nH]c(C)nc12 [Compound 9b, 6-(5-Fluoro-2-methoxyphenyl)-8-methyl-9H-purine] | 0.2 | 0.341 | 0.259 |  | 0.148 | 0.2 | 0.0286 | 0.0705 | -1.5 | 0.9 | very low affinity for all bromodomains | 0.8 | 0.2 | 0.0729 |  | 2.9
